# Source: patent publication US20110224300A1, “USE OF POTASSIUM 2-(a- HYDROXYPENTYL) BENZOATE IN THE MANUFACTURE OF MEDICAMENTS FOR PREVENTING AND/OR TREATING SENILE [sequence]” (Institute of Mataria Medica, Chinese Academy of Me, priority 2008, published 2011)
# Experiments:
# SOD [1] = assay: SOD activity of brain tissues from SAMP8 mice; format: in vivo; conditions: 35 days; for SOD activity in the hippocampus: untreated SAMP8 279.4±65.7, P<0.05
# Experimental: (§1) The biochemical assays were conducted later (in 24 h) after behavioral testing. Eight rats in each group were anesthetized with ether and sacrificed. The brains were quickly removed and cleaned with ice-cold saline. Then the parietal cortex and hippocampus were isolated. For biochemical analysis, the tissues were weighed and homogenized in ice-cold saline with the proportion of 1:9 (w/v). Homogenization (IKA, Germany) was carried out for 2 min in an ice bath. After the homogenates were centrifuged at 2,000×g for 10 min at 4° C. (Sigma, Germany), the supernatant was used for analytical procedures. The levels of choline acetyltransferase (ChAT) SOD, and MDA activities were determined with commercial colorimetric assay kits (Nanjing Jiancheng Bioengineering Institute, China). The content of protein in the supernatant was determined by Bradford method using BSA as standard.
# (§2) SAMP8 were divided into three experimental groups randomly: one vehicle control group, and two dl-PHPB-treated groups (50, and 160 mg/kg). Drugs and vehicle were administered orally to SAMP8 mice for 35 days (one time/each day). The spatial learning and memory abilities of SAMP8 mice were detected by Morris water maze and DTT-2 jumping apparatus in 31-35 days. The testing was commenced at 40 min after drugs treated. The biochemical and pathology assays conducted later (in 24 h) after behavioral testing.
# (§3) The methods as described previously.
# SAMP8 mice = assay: Step down test in SAMP8 mice; format: in vivo; conditions: for step-down latency time: vehicle 0.7±0.2, P<0.01
# Experimental: as §2
# The step-down avoidance task was performed by using a behavior box (22 cm×15 cm×30 cm each). Each testing chamber has 3 Plexiglas black walls, a clear Plexiglas front wall, metal grid floors and an insulating platform (3 cm diameter, 4 cm height), which is located at one corner of the testing chamber. The metal grids are connected to the output terminals of an electrical stimulator. For the habituation session, each mouse was gently placed on the insulating platform and was allowed to explore in the testing chamber for 3 min before placing back on the platform again. Monophasic pulses (1 ms, 1 Hz, 36 VDC) were continuously delivered for 5 min during the training tria. If the mouse steps down from the platform onto the grid floor, the mouse will be subjected to receive an electric shock until returning to the platform. Then, 24 h after the training, the mice were placed on the platform for assessing their long term memory of retention period. The electric shocks were delivered for 5 min and the latency to step down on the grid with four paws for the first time (step-down latency) and the numbers of errors subjected to shocks within 5 min were recorded.
# Mitochondrial ATPase = assay: Cortex mitochondrial ATPase activity in SAMP8 mice; format: in vivo; conditions: 160 mg/kg oral, 35 days, vehicle 8.58±0.21, significant
# Experimental: as §1
# as §2, with “testing. […]” for “testing.”
# SOD [2] = assay: SOD activity of brain tissues from permanent 2-VO rats; format: in vivo, rat; conditions: for SOD activity in cortex: 21 days
# Experimental: (§4) In 10 days after onset of 2-VO, drugs and vehicle were administered orally to rats for 21 days (one time/each day). The spatial learning and memory capability of rats were detected by Morris water maze in the 25-30 days after operation. The Morris water test was commenced at 40 min after drugs treated. The biochemical and pathology assays were conducted later (in 24 h) after behavioral tests.
# as §1
# MDA = MDA level of brain tissues from permanent 2-VO rats; format: in vivo, rat; conditions: for MDA level in cortex: 21 days
# Experimental: as §4, §1
# ChAT [3] = assay: ChAT activity of brain tissues from permanent 2-VO rats; format: in vivo, rat; conditions: for activity of ChAT in hippocampus: 21 days
# Experimental: as §4, §1
# AChE = AChE activity of hippocampus from SAMP8 mice; format: in vivo; conditions: treatment up to 35 days, tendency only
# Experimental: as §2, §3
# ChAT [4] = assay: ChAT activity of brain tissues from Aβ(25-35)-induced dementia rats; format: in vivo, Male Wistar rats; conditions: Aβ(25-35) rats, 2 weeks
# Experimental: as §1
# Rats were divided into four experimental groups randomly (10 rats/each group): one sham-operated group, one vehicle control group, and two dl-PHPB-treated groups (39, and 129 mg/kg). At 1 days after operation, drugs and vehicle were administered orally to rats for 14 days (one time/each day). The spatial learning and memory abilities of rats were detected by Morris water maze in the 9-12 days after operation. The testing of Morris water was commenced at 40 min after drugs treated. […]
structure (smiles),measurement,setting,value
"CCCCC(O)c1ccccc1C(=O)[O-].[K+] (racemic) [dl-PHPB, Potassium 2-(1-Hydroxypentyl)-benzoate]",SOD activity in the hippocampus,SOD [1]; 50 mg/kg oral,156.2±7.8 U/mg protein
same,SOD activity in the hippocampus,SOD [1]; 160 mg/kg oral,158.7±11.4 U/mg protein
same,SOD activity in the cortex,SOD [1]; cortex,did not significantly improve SOD activity
same,numbers of errors subjected to shocks,"SAMP8 mice; 50 mg/kg oral, first day of training, vehicle 8.3±0.6, P<0.01",5.8±0.5
same,numbers of errors subjected to shocks,"SAMP8 mice; 50 mg/kg oral, second day, vehicle 4.6±0.3, P<0.05",3.4±0.3
same,step-down latency time,SAMP8 mice; 50 mg/kg oral,5.5±0.8
same,numbers of errors subjected to shocks,"SAMP8 mice; 160 mg/kg oral, first day of training, vehicle 8.3±0.6, P<0.001",4.9±0.5
same,numbers of errors subjected to shocks,"SAMP8 mice; 160 mg/kg oral, second day, vehicle 4.6±0.3, P<0.01",2.1±0.3
same,step-down latency time,SAMP8 mice; 160 mg/kg oral,10.2±2.4
same,ATPase activity (cortex mitochondria),Mitochondrial ATPase,9.82±0.51 U/mg protein
same,SOD activity in cortex,SOD [2]; dl-PHPB 13 mg/kg,significantly alleviated the increase of SOD activity
same,SOD activity in cortex,SOD [2]; dl-PHPB 39 mg/kg,significantly alleviated the increase of SOD activity
same,SOD activity in hippocampus,"SOD [2]; hippocampus, doses not given",no significant effects
same,MDA level in cortex,MDA; dl-PHPB 13 mg/kg,decreased MDA level
same,MDA level in cortex,MDA; dl-PHPB 39 mg/kg,decreased MDA level
same,MDA level in cortex,MDA; dl-PHPB 129 mg/kg,decreased MDA level
same,MDA level in hippocampus,"MDA; hippocampus, doses not given",no significant effects
same,ChAT activity in cortex,"ChAT [3]; cortex, data not shown",had no effect
same,activity of ChAT in hippocampus,ChAT [3]; dl-PHPB 13 mg/kg,did not show significant effects
same,activity of ChAT in hippocampus,ChAT [3]; dl-PHPB 39 mg/kg,did not show significant effects
same,activity of ChAT in hippocampus,"ChAT [3]; dl-PHPB 129 mg/kg, P<0.05",significantly increased the activity of ChAT
same,AChE activity in the hippocampus,AChE,might decrease AChE activity
same,cortical ChAT activity,"ChAT [4]; 39 mg/kg, P<0.05",significantly increased the ChAT activity
same,cortical ChAT activity,ChAT [4]; 129 mg/kg,strong trend
